Experimental findings from patent US20190002436A1, “RESPIRATORY SYNCYTIAL VIRUS INHIBITORS” (MEDIVIR AB, priority 2015, published 2019) are described below.

A value given as a limit tells only on which side of the number the result lay.

By EC50 is commonly meant the concentration that produces a half-maximal response.

One assay relates to RSV (Long). The assay is described as follows: RSV cytopathic effect (CPE)-based viral replication assay. Format: cell-based, respiratory syncytial virus (RSV). Particulars: HEp-2 cells infected with RSV Long at MOI 0.015; 3 days at 37° C.; cell viability by CellTiter-Glo luminescence; read-out: EC50 (nm). The essentials: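 HEp-2 cells, 2,500 per well in DMEM with 2% heat-inactivated FBS, treated with 10-point compound dilutions and infected with RSV Long at MOI 0.015. After 3 days at 37 °C, 5% CO2, viability read by CellTiter-Glo luminescence; EC50 derived from CPE data.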
Background: Cytopathic effects are the visible damage that an infection or toxin causes in cultured cells.
As to `O=C1CC(c2c(Cn3c(=O)n(C4CC4)c4ccncc43)ncc3ccccc23)CN1` (centres unmarked) [Example 112c, 1-cyclopropyl-3-((4-(5-oxopyrrolidin-3-yl)isoquinolin-3-yl)methyl)-1H-imidazo[4,5-c]pyridin-2(3H)-one], the EC50 came out at 12 nM.
The same measure, in the same setting: the figure for `CS(=O)(=O)N1CCC2(CC1)C(=O)N(Cc1ncc3ccccc3c1CCCCO)c1cnccc12` [Example 37c, 1′-((4-(4-Hvdroxybutyl)isoquinolin-3-yl)methyl)-1-(methylsulfonyl)spiro[piperidine-4,3′-pyrrolo[2,3-c]pyridin]-2′(1′H)-one] is 7.2 nM.
Still for that read-out and setting: in the case of `COC(=O)NC1CC2(C1)C(=O)N(Cc1ncc3ccccc3c1-c1ccc(C#N)nc1)c1ccccc12` (centres unmarked) [Example 84-2] it was 4.5 nM.

The assay is the same for the next values; noted with them: human respiratory syncytial virus, HEp-2, 72 h, HEp-2 cells infected with RSV Long at MOI 0.015; 3 days at 37° C.; cell viability by CellTiter-Glo luminescence; read-out: EC50 (nm).
Regarding `CS(=O)(=O)N1CC2(C1)C(=O)N(Cc1ncc3ccccc3c1-c1ccc(C(F)(F)F)cc1)c1ccccc12` [Example 79, 1-(Methylsulfonyl)-1′-((4-(4-(trifluoromethyl)phenyl)isoquinolin-3-yl)methyl)spiro[azetidine-3,3′-indolin]-2′-one], the EC50 came out at 8.7 nM.
Still for that read-out and setting: in the case of `O=c1n(Cc2ncc3ccccc3c2CCCCO)c2ccccc2n1CC(F)(F)F` [Example 5c, 1-((4-(4-hydroxybutyl)isoquinolin-3-yl)methyl)-3-(2,2,2-trifluoroethyl)-1H-benzo[d]imidazol-2(3H)-one] it was 19 nM; in that of `NC1(CC(=O)N2CC3(C2)C(=O)N(Cc2ncc4ccccc4c2-c2cccnc2)c2ccccc23)CC1` [Example 156, 1-(2-(1-aminocyclopropyl)acetyl)-1′-((4-(pyridin-3-yl)isoquinolin-3-yl)methyl)spiro[azetidine-3,3′-indolin]-2′-one], 13 nM; in that of `CC(C)(C)c1ccc(-c2c(Cn3c(=O)n(C4CC4)c4ccncc43)ncc3ccccc23)cc1` [Example 51d, 3-((4-(4-(tert-butyl)phenyl)isoquinolin-3-yl)methyl)-1-cyclopropyl-1H-imidazo[4,5-c]pyridin-2(3H)-one], more than 1 nM.
The same measure, in the same setting: the figure for `CNC1(C(=O)N2CCC3(CC2)C(=O)N(Cc2ncc4ccccc4c2-c2ccc(C(=O)N(C)C)nc2)c2cnccc23)CC1` [Example 122, N,N-dimethyl-5-(3-((1-(1-(methylamino)cyclopropanecarbonyl)-2′-oxospiro[piperidine-4,3′-pyrrolo[2,3-c]pyridin]-1′(2′H)-yl)methyl)isoquinolin-4-yl)picolinamide] is 8.5 nM; for `CNC(=O)O[C@H]1C[C@@]2(C1)C(=O)N(Cc1ncc3ccccc3c1-c1ccc(C#N)nc1)c1ccccc12` [Example 133, (1R,3R)-1′-((4-(6-cyanopyridin-3-yl)isoquinolin-3-yl)methyl)-2′-oxospiro[cyclobutane-1,3′-indolin]-3-yl methylcarbamate] it is 3.4 nM.
Same read-out and setting: in the case of `COC(=O)N1CCC(n2c(=O)n(Cc3ncc4cc(Cl)ccc4c3CCCCO)c3cnccc32)CC1` [Example 20, Methyl 4-(3-((7-chloro-4-(4-hydroxybutyl)isoquinolin-3-yl)methyl)-2-oxo-2,3-dihydro-1H-imidazo[4,5-c]pyridin-1-yl)piperidine-1-carboxylate] it was 8.5 nM.
As for `COC(=O)N1CC2(C1)C(=O)N(Cc1ncc3ccccc3c1-c1ccc(S(N)(=O)=O)cc1)c1ccccc12` [Example 99, Methyl 2′-oxo-1′-((4-(4-sulfamoylphenyl)isoquinolin-3-yl)methyl)spiro[azetidine-3,3′-indoline]-1-carboxylate], the EC50 was 0.75 nM.
Same read-out and setting: in the case of `CC1(S(=O)(=O)N2CCC3(CC2)C(=O)N(Cc2ncc4ccccc4c2CCCCO)c2cnccc23)CC1` [Example 54, 1′-((4-(4-hydroxybutyl)isoquinolin-3-yl)methyl)-1-((1-methylcyclopropyl)sulfonyl)spiro[piperidine-4,3′-pyrrolo[2,3-c]pyridin]-2′(1′H)-one] it was 6 nM; in that of `COC(=O)N1CC2(C1)C(=O)N(Cc1ncc3ccccc3c1-c1ccncc1)c1ccccc12` [Example 97, Methyl 2′-oxo-1′-((4-(pyridin-4-yl)isoquinolin-3-yl)methyl)spiro[azetidine-3,3′-indoline]-1-carboxylate], 0.45 nM; in that of `CN(C)C1(C(=O)N2CC3(C2)C(=O)N(Cc2ncc4ccccc4c2-c2ccc(C(N)=O)nc2)c2ccccc23)CC1` [Example 113b, 5-(3-((1-(1-(Dimethylamino)cyclopropanecarbonyl)-2′-oxospiro[azetidine-3,3′-indolin]-1′-yl)methyl)isoquinolin-4-yl)picolinamide], 17 nM.
Take `NC(=O)c1ccc(-c2c(CN3C(=O)C4(CCN(C(=O)[C@@H]5CC(F)(F)CN5)CC4)c4ccncc43)ncc3ccccc23)cn1` [Example 2011]: the EC50 was determined as 21 nM.
On the same count and under the same terms, the figure for `NC1(CNC(=O)N2CC3(C2)C(=O)N(Cc2ncc4ccccc4c2-c2cncc(F)c2)c2ccccc23)CC1` [Example 2004] is 3 nM.
The same measure, in the same setting: the figure for `NCC(N1CC2(C1)C(=O)N(Cc1ncc3ccccc3c1-c1cccnc1)c1ccccc12)C(F)(F)F` (centres unmarked) [Example 2037] is 0.82 nM; for `COC(=O)N1CCC(n2c(=O)n(Cc3ncc4cc(C#N)ccc4c3CCCCO)c3cnccc32)CC1` [Example 23b, methyl 4-(3-((7-cyano-4-(4-hydroxybutyl)isoquinolin-3-yl)methyl)-2-oxo-2,3-dihydro-1H-imidazo[4,5-c]pyridin-1-yl)piperidine-1-carboxylate] it is 41 nM; for `COC(=O)N1CCC(n2c(=O)n(Cc3ncc4ccccc4c3CCCCO)c3cnccc32)CC1` [Example 2d, Methyl 4-(3-((4-(4-hydroxybutyl)isoquinolin-3-yl)methyl)-2-oxo-2,3-dihydro-1H-imidazo[4,5-c]pyridin-1-yl)piperidine-1-carboxylate] it is 2 nM.
With `CS(=O)(=O)N1CCC2(CC1)C(=O)N(Cc1ncc3ccccc3c1-c1cccnc1)c1cnccc12` [Example 136, 1-(methylsulfonyl)-1′-((4-(pyridin-3-yl)isoquinolin-3-yl)methyl)spiro[piperidine-4,3′-pyrrolo[2,3-c]pyridin]-2′(1′H)-one], the EC50 is 0.8 nM.
Still for that read-out and setting: in the case of `CNC1(C(=O)N2CC3(C2)C(=O)N(Cc2ncc4ccccc4c2-c2ccc(NS(C)(=O)=O)cn2)c2ccccc23)CC1` [Example 2005] it was 230 nM; in that of `COC(=O)NC1CC2(C1)C(=O)N(Cc1ncc3ccccc3c1-c1ccc(C#N)nc1)c1ccccc12` (centres unmarked) [Example 84-1], 7.2 nM.
Consider `CC(C)(O)C(=O)N1CCC2(CC1)C(=O)N(Cc1ncc3ccccc3c1-c1cccnc1)c1cnccc12` [Example 138, 1-(2-hydroxy-2-methylpropanoyl)-1′-((4-(pyridin-3-yl)isoquinolin-3-yl)methyl)spiro[piperidine-4,3′-pyrrolo[2,3-c]pyridin]-2′(1′H)-one], for which the EC50 was 3.6 nM.
Same read-out and setting: in the case of `COC(=O)N1CC2(C1)C(=O)N(Cc1nc(C(F)F)c3ccccc3c1-c1cccnc1)c1ccccc12` [Example 2003] it was 1000 nM.
In the case of `CC1(S(=O)(=O)N2CC3(C2)C(=O)N(Cc2ncc4ccccc4c2-c2ccc(C#N)nc2)c2ccccc23)CC1` [Example 61], the EC50 stood at 4.4 nM.
With `O=C1N(Cc2ncc3ccccc3c2CCCCO)c2ccccc2C12CNC2` [Example 40, 1′-((4-(4-Hydroxybutyl)isoquinolin-3-yl)methyl)spiro[azetidine-3,3′-indolin]-2′-one], the EC50 was 110 nM.
For `O=C(C1CCNCC1)N1CC2(C1)C(=O)N(Cc1ncc3ccccc3c1-c1cccnc1)c1ccccc12` [Example 149b, 1-(Piperidine-4-carbonyl)-1′-((4-(pyridin-3-yl)isoquinolin-3-yl)methyl)spiro[azetidine-3,3′-indolin]-2′-one], the EC50 stood at 6 nM.
Take `NC(=O)N1CCC2(CC1)C(=O)N(Cc1ncc3ccccc3c1-c1cccnc1)c1cnccc12` [Example 135b, 2′-oxo-1′-((4-(pyridin-3-yl)isoquinolin-3-yl)methyl)-1′,2′-dihydrospiro[piperidine-4,3′-pyrrolo[2,3-c]pyridine]-1-carboxamide]: the EC50 came out at 2 nM.
Regarding `NC1(C(=O)N2CCC3(CC2)C(=O)N(Cc2ncc4ccccc4c2-c2ccncc2)c2cnccc23)CC1` [Example 2016], the EC50 was 7.1 nM.
